This passage reports EC50 results from US20240409531A1, “BENZOXAZINONE DERIVATIVES AS SELECTIVE CYTOTOXIC AGENTS” (Merck Sharp & Dohme LLC, priority 2021, published 2024).

The assay has as its system PBMCs infected with VSV-G pseudotyped HIV virus (VSV-G/pNLGI-P2A-ΔEnv). Kind of assay: cells. Format: cell-based. Particulars: Homo sapiens, PBMC, read-out: TACK EC50 (nM).

For orientation: EC50 means the midpoint of the concentration-response curve.

Structures are written as SMILES.

For `COc1cc(=O)n(Cc2cc3c(cc2F)[C@@](C#CC2CC2)(C(C)(F)F)OC(=O)N3)cn1` [Example 24, (S)-4-(cyclopropylethynyl)-4-(1,1-difluoroethyl)-6-fluoro-7-((4-methoxy-6-oxopyrimidin-1(6H)-yl)methyl)-1,4-dihydro-2H-benzo[d][1,3]oxazin-2-one], the concentration for a half-maximal effect (EC50) is 9 nM.
Take `CC(F)(F)[C@@]1(C#CC2CC2)OC(=O)Nc2cc(Cn3cncc(N)c3=O)c(F)cc21` [Example 20, (S)-7-((5-amino-6-oxopyrimidin-1(6H)-yl)methyl)-4-(cyclopropylethynyl)-4-(1,1-difluoroethyl)-6-fluoro-1,4-dihydro-2H-benzo[d][1,3]oxazin-2-one]: the EC50 stood at 11 nM.
Consider `Nc1nccc(Cc2cc3c(cc2F)[C@@](C#CC2CC2)(C(F)(F)F)OC(=O)N3)n1` (single isomer, unassigned) [Example 31A], for which the EC50 amounted to 91 nM.
In the case of `O=C1Nc2cc(Cn3cnc(C(F)F)cc3=O)c(Cl)cc2[C@@](C#CC2CC2)(C(F)(F)F)O1` [Example 18, (S)-6-chloro-4-(cyclopropylethynyl)-7-((4-(difluoromethyl)-6-oxopyrimidin-1(6H)-yl)methyl)-4-(trifluoromethyl)-1,4-dihydro-2H-benzo[d][1,3]oxazin-2-one] it was 83 nM; in that of `CC(F)(F)[C@@]1(C#CC2CC2)OC(=O)Nc2cc(Cn3cnccc3=O)c(F)cc21` [Example 22, (S)-4-(cyclopropylethynyl)-4-(1,1-difluoroethyl)-6-fluoro-7-((6-oxopyrimidin-1(6H)-yl)methyl)-1,4-dihydro-2H-benzo[d][1,3]oxazin-2-one], 12 nM.
For `CC(F)(F)[C@@]1(C#CC2CC2)OC(=O)Nc2cc(Cc3ccnc(N)n3)ccc21` [Example 37, (S)-7-((2-aminopyrimidin-4-yl)methyl)-4-(cyclopropylethynyl)-4-(1.1-difluoroethyl)-1.4-dihydro-2H-benzo[d][1.3]oxazin-2-one], the 50% effective concentration (EC50) came out at 43 nM.
`O=C1Nc2cc(Cn3cnc(C(F)F)cc3=O)c(F)cc2[C@@](C#CC2CC2)(C(F)(F)F)O1` (single isomer, unassigned) [Example 7A]: the EC50 came out at 45 nM.
Regarding `Nc1nccn(Cc2cc3c(cc2F)[C@@](C#CC2CC2)(C(F)(F)F)OC(=O)N3)c1=O` (single isomer, unassigned) [Example 1A], the EC50 amounted to 39 nM.
